pIC50: −log10 of the molar value. In brackets after ≈: the same amount, converted by molar mass. Entries after “also recorded” stand apart in the source; their conditions may differ. Where two headings read alike, the source gives them in different places.
Key:
SARS-CoV-2 Wk-521 strain = experiment: SARS-CoV-2 infection assay, viral RNA in culture supernatant (VeroE6/TMPRSS2 cells); type: cell-based
TGFβ signaling = type: cell-based; conditions: 10 μM; NIH3T3 cells stimulated with 20 ng/mL TGFβ
Hedgehog (Hh) signaling = type: cell-based; conditions: 10 μM; NIH3T3 cells with CAPAN-1 conditioned medium containing Shh
[1] = test system: double-membrane vesicles (DMVs) in SARS-CoV-2-infected cells; experiment: Electron microscopy of double-membrane vesicle (DMV) formation; type: cell-based; conditions: 10 μM Oxy210, Oxy232 (10 μM)
[2] = test system: SARS-CoV-2 (isolate USA WA1/2020); experiment: SARS-CoV-2 infection of Calu-3 cells (dsRNA+ cells, automated microscopy); type: cell-based
Procedure: (§1) FIGS. 12A-12C depict dose-response curves for Oxy232. (FIG. 12A) Secreted viral RNA in the VeroE6 culture supernatant 24 h post-inoculation was quantified by real-time RT-PCR. Cell viability of Oxy232 treated cells evaluated with an MTT assay. (FIG. 12B) Secreted viral RNA of 3 SARS-CoV-2 strains in the VeroE6 culture supernatant 24 h post-inoculation was quantified by real-time RT-PCR. (FIG. 12C) Calu-3 (ATCC) cells were pretreated with Oxy232 for 2 hours prior to continuous infection with SARS-CoV-2 (isolate USA WA1/2020) at MOI=0.5. 48 h post-infection, cells were fixed, immune-strained, and imaged by automated microscopy for infection (dsRNA+ cells/total cell number) and cell number.
According to a previously published report (Ohashi et al., Identification of Anti-Severe Acute Respiratory Syndrome-Related Coronavirus 2 (SARS-CoV-2) Oxysterol Derivatives In Vitro. Int J Mol Sci. 2021; 22(6):3163. PMCID: PMC8003796) inventors have tested a collection of naturally occurring and semisynthetic oxysterol derivatives in a SARS-CoV-2 cell culture infection assay in VeroE6/TMPRSS2 cells. […] See, Ohashi et al., Int J Mol Sci. 2021; 22(6):3163 and Dittmar et al. Drug repurposing screens reveal cell-type-specific entry pathways and FDA-approved drugs active against SARS-Cov-2. Cell Rep. […] PMCID: PMC7985926. […] Without wishing to be bound by a theory, biological activities of oxysterols, including measures of cell viability, can heavily depend on in vitro assay conditions, such as the fetal bovine serum concentration or the duration of pretreatment with the compounds, among other factors, that may not translate to the in vivo safety of the compounds.

[3] = test system: SARS-CoV-2 TY7-501 (Brazil strain); experiment: SARS-CoV-2 TY7-501 strain infection in VeroE6/TMPRSS2 cells; type: cell-based; conditions: viral RNA 24 h post-inoculation
Procedure: as §1
(§2) According to a previously published report (Ohashi et al., Identification of Anti-Severe Acute Respiratory Syndrome-Related Coronavirus 2 (SARS-CoV-2) Oxysterol Derivatives In Vitro. Int J Mol Sci. 2021; 22(6):3163. PMCID: PMC8003796) inventors have tested a collection of naturally occurring and semisynthetic oxysterol derivatives in a SARS-CoV-2 cell culture infection assay in VeroE6/TMPRSS2 cells. […] See, Ohashi et al., Int J Mol Sci. 2021; 22(6):3163 and Dittmar et al. Drug repurposing screens reveal cell-type-specific entry pathways and FDA-approved drugs active against SARS-Cov-2. Cell Rep. […] PMCID: PMC7985926. […]

[4] = test system: SARS-CoV-2 TY8-612 (South Africa strain); experiment: SARS-CoV-2 TY8-612 strain infection in VeroE6/TMPRSS2 cells; type: cell-based; conditions: viral RNA 24 h post-inoculation
Procedure: as §1, §2

VeroE6/TMPRSS2 cells = conditions: MTT assay; 24 h; VeroE6/TMPRSS2 cells
Calu-3 cells = conditions: at higher concentrations; automated microscopy
[5] = for Mean Oxy232 Levels in Lung Tissue (ng/g) / Mean Oxy232 Levels in Lung Tissue (μM): oral 200 mg/kg
in vitro [6] = conditions: African green monkey
in vitro [7] = conditions: human

**Q.** For `CC[C@@](O)(CCc1cccnc1)[C@H]1CC[C@H]2[C@@H]3CC[C@H]4C[C@@H](O)CC[C@]4(C)[C@H]3CC[C@]12C` [Oxy232, (3S,5S,8R,9S,10S,13S,14S,17S)-17-((R)-3-hydroxy-1-(pyridin-3-yl)pentan-3-yl)-10,13-dimethylhexadecahydro-1H-cyclopenta[a]phenanthren-3-ol], which “viral RNA in the culture supernatant” value (SARS-CoV-2 Wk-521 strain; 24 h post-inoculation, natural oxysterols up to 30 μM, semi-synthetic up to 15 μM) is on record?
**A.** reduced viral RNA level in a dose-dependent manner

**Q.** And the IC50 (SARS-CoV-2 Wk-521 strain; Severe acute respiratory syndrome coronavirus 2, Vero C1008, read-out: IC50 VeroE6 cells (ng/mL))?
**A.** 2370 ng/mL

**Q.** What about the IC90 (SARS-CoV-2 Wk-521 strain; Severe acute respiratory syndrome coronavirus 2, Vero C1008, read-out: IC90 VeroE6 cells (ng/mL), Table 6, same value in mass units) of the same compound?
**A.** 3250 ng/mL

**Q.** And the pIC50 (SARS-CoV-2 Wk-521 strain; Severe acute respiratory syndrome coronavirus 2, Vero C1008, SARS-CoV-2, VeroE6, read-out: IC50 (VeroE6))?
**A.** 5.27

**Q.** What about the IC90 (SARS-CoV-2 Wk-521 strain; Severe acute respiratory syndrome coronavirus 2, Vero C1008, SARS-CoV-2, VeroE6, read-out: IC90 (VeroE6)) of the same compound?
**A.** 7.8 µM

**Q.** And the pIC50 (SARS-CoV-2 Wk-521 strain; Severe acute respiratory syndrome coronavirus 2, Vero C1008, Table 6, read-out: IC50 VeroE6 cells)?
**A.** 5.27

**Q.** What about the IC90 (SARS-CoV-2 Wk-521 strain; Severe acute respiratory syndrome coronavirus 2, Vero C1008, Table 6, read-out: IC90 VeroE6 cells) of the same compound?
**A.** 7.8 µM

**Q.** And the IC90 (SARS-CoV-2 Wk-521 strain; Severe acute respiratory syndrome coronavirus 2, VeroE6/TMPRSS2, 24 h, SARS-CoV-2 viral RNA in culture supernatant, 24 h post-inoculation, VeroE6/TMPRSS2 cells, read-out: IC90)?
**A.** 7.8 µM

**Q.** What about the pIC50 (SARS-CoV-2 Wk-521 strain; Severe acute respiratory syndrome coronavirus 2, SARS-CoV-2 viral RNA in culture supernatant, 24 h post-inoculation, VeroE6/TMPRSS2 cells, read-out: IC50) of the same compound?
**A.** 5.27

**Q.** And the “IC90 VeroE6 cells” value (SARS-CoV-2 Wk-521 strain; Table 6, same value in mass units)?
**A.** 3429 ng/mL (≈ 7.8 µM)

**Q.** And the “reduction of viral RNA production at the maximum” value (SARS-CoV-2 Wk-521 strain; at 15 μM)?
**A.** 99.9%

**Q.** And the “anti-SARS-CoV-2 activity” value (SARS-CoV-2 Wk-521 strain; cell-based assay, VeroE6/TMPRSS2)?
**A.** superior anti-SARS-CoV-2 activity; also recorded: anti-SARS-CoV-2 activity comparable to Oxy210; also recorded: significant anti SARS-CoV-2 activity

**Q.** And the “viral RNA levels in the culture supernatant” value (SARS-CoV-2 Wk-521 strain; oxysterol derivatives at 10 or 30 uM, 24 h post-inoculation, VeroE6/TMPRSS2)?
**A.** strongly reduced viral RNA levels

**Q.** What about the SARS-CoV-2 replication (SARS-CoV-2 Wk-521 strain; statement in words) of the same compound?
**A.** drastically reduced SARS-CoV-2 replication

**Q.** And the viral inhibition (SARS-CoV-2 Wk-521 strain; tested in multiple studies, VeroE6/TMPRSS2)?
**A.** greater than 99%

**Q.** What about the “TGFβ inhibitory properties (CTGF mRNA)” value (TGFβ signaling) of the same compound?
**A.** devoid of significant TGFβ pathway inhibitory properties

**Q.** What about the “inhibitory activity toward Hh signaling (Gli1 mRNA)” value (Hedgehog (Hh) signaling) of the same compound?
**A.** retains inhibitory activity toward Hh signaling

**Q.** What about the “DMV formation in SARS-CoV-2-infected cells” value [1] of the same compound?
**A.** inhibit DMV formation

**Q.** What about the IC50 ([2]; Severe acute respiratory syndrome coronavirus 2, Calu-3, read-out: IC50 Calu-3 cells (ng/ml)) of the same compound?
**A.** 3050 ng/mL

**Q.** And the IC90 ([2]; Severe acute respiratory syndrome coronavirus 2, Calu-3, read-out: IC90 Calu-3 cells (ng/ml))?
**A.** 5920 ng/mL

**Q.** And the pIC50 ([2]; Severe acute respiratory syndrome coronavirus 2, Calu-3, Table 6, read-out: IC50 Calu-3 cells)?
**A.** 5.16

**Q.** What about the IC90 ([2]; Severe acute respiratory syndrome coronavirus 2, Calu-3, Table 6, read-out: IC90 Calu-3 cells) of the same compound?
**A.** 13.5 µM

**Q.** What about the pIC50 ([2]; Severe acute respiratory syndrome coronavirus 2, SARS-CoV-2 USA WA1/2020, MOI=0.5, 48 h post-infection, Calu-3, read-out: IC50 (Calu-3)) of the same compound?
**A.** 5.16

**Q.** And the IC90 ([2]; Severe acute respiratory syndrome coronavirus 2, SARS-CoV-2 USA WA1/2020, MOI=0.5, 48 h post-infection, Calu-3, read-out: IC90 (Calu-3))?
**A.** 13.5 µM

**Q.** What about the “antiviral activity in Calu-3 human lung epithelial cells” value ([2]; USA WA1/2020 isolate, at NIAID) of the same compound?
**A.** confirmed the antiviral activity

**Q.** What about the “activity against the TY7-501 strain” value [3] of the same compound?
**A.** undiminished activity

**Q.** And the “activity against the TY8-612 strain” value [4]?
**A.** undiminished activity

**Q.** What about the CC50 (VeroE6/TMPRSS2 cells) of the same compound?
**A.** > 15 µM

**Q.** And the “cell viability in Calu-3 cells” value (Calu-3 cells)?
**A.** do affect cell viability

**Q.** What about the “Mean Oxy232 Levels in Lung Tissue (ng/g)” value ([5]; mice, time 0 h) of the same compound?
**A.** 0 ng/g

**Q.** And the “Mean Oxy232 Levels in Lung Tissue (μM)” value ([5]; mice, time 0 h)?
**A.** 0 µM

**Q.** What about the “Mean Oxy232 Levels in Lung Tissue (ng/g)” value ([5]; mice, time 0.25 h) of the same compound?
**A.** 1500 ng/g

**Q.** And the “Mean Oxy232 Levels in Lung Tissue (μM)” value ([5]; mice, time 0.25 h)?
**A.** 3.41 µM

**Q.** And the “Mean Oxy232 Levels in Lung Tissue (ng/g)” value ([5]; mice, time 0.5 h)?
**A.** 8055 ng/g

**Q.** What about the “Mean Oxy232 Levels in Lung Tissue (μM)” value ([5]; mice, time 0.5 h) of the same compound?
**A.** 18.32 µM

**Q.** And the “Mean Oxy232 Levels in Lung Tissue (ng/g)” value ([5]; mice, time 1 h)?
**A.** 9427 ng/g

**Q.** What about the “Mean Oxy232 Levels in Lung Tissue (μM)” value ([5]; mice, time 1 h) of the same compound?
**A.** 21.44 µM

**Q.** And the “Mean Oxy232 Levels in Lung Tissue (ng/g)” value ([5]; mice, time 2 h)?
**A.** 7764 ng/g

**Q.** And the “Mean Oxy232 Levels in Lung Tissue (μM)” value ([5]; mice, time 2 h)?
**A.** 17.66 µM

**Q.** What about the “Mean Oxy232 Levels in Lung Tissue (ng/g)” value ([5]; mice, time 4 h) of the same compound?
**A.** 2916 ng/g

**Q.** What about the “Mean Oxy232 Levels in Lung Tissue (μM)” value ([5]; mice, time 4 h) of the same compound?
**A.** 6.63 µM

**Q.** And the “Mean Oxy232 Levels in Lung Tissue (ng/g)” value ([5]; mice, time 8 h)?
**A.** 673 ng/g

**Q.** And the “Mean Oxy232 Levels in Lung Tissue (μM)” value ([5]; mice, time 8 h)?
**A.** 1.53 µM

**Q.** And the “Mean Oxy232 Levels in Lung Tissue (ng/g)” value ([5]; mice, time 24 h)?
**A.** 122 ng/g

**Q.** What about the “Mean Oxy232 Levels in Lung Tissue (μM)” value ([5]; mice, time 24 h) of the same compound?
**A.** 0.28 µM

**Q.** What about the “tolerability of oral dosing” value ([5]; oral dosing in mice) of the same compound?
**A.** well tolerated

**Q.** What about the “concentrations in lung tissue homogenate compared to plasma” value ([5]; single dose 200 mg/kg, mice) of the same compound?
**A.** generally higher than in plasma

**Q.** What about the “time lung homogenate concentration above Calu-3 IC50 levels” value ([5]; single dose 200 mg/kg, mice) of the same compound?
**A.** more than 3.5 h

**Q.** What about the “time lung homogenate concentration above VeroE6 IC50 levels” value ([5]; single dose 200 mg/kg, mice) of the same compound?
**A.** 5 h

**Q.** What about the “time plasma concentration above IC50 levels for antiviral activity (VeroE6/TMPRSS2)” value ([5]; single dose 200 mg/kg, mice) of the same compound?
**A.** more than 3 hours

**Q.** What about the CC50 (in vitro [6]) of the same compound?
**A.** > 15 µM

**Q.** What about the CC50 (in vitro [7]) of the same compound?
**A.** 29.4 µM

Reference: patent US20230364111A1 (priority 2020, published 2023)
